According to patent US20210030908A1 (priority 2013, published 2021):
Like-named read-outs stand apart in the source and are kept apart here.

Columns and labels:
[1] = test system: Bacillus atrophaeus spore strip; assay type: cell-based; conditions: for Sterilization (6-log reduction of Bacillus atrophaeus), Exposure Time 5 Minutes (CT = 250): 3,000 ppmv ClO2 in air, 700 feet/sec, nozzle 2.54 cm from target, CT in ppmv-hrs, per sample replicate
anthrax spores = conditions: gas or vapor phase application, prior art; cited from earlier work
mold spores = conditions: time averaged concentration about 500 to 1500 ppmv over a 12 hour period, prior art; cited from earlier work

In the case of `[O][Cl+][O-]` [chlorine dioxide], the “Sterilization (6-log reduction of Bacillus atrophaeus), Exposure Time 5 Minutes (CT = 250)” value ([1]; Group 1 spore strips, pre-humidified for one hour at about 75 degrees F.) is reported as “− (“−” indicates at least a 6-log reduction of Bacillus atrophaeus)”, the “Sterilization (6-log reduction of Bacillus atrophaeus), Exposure Time 5 Minutes (CT = 250)” value ([1]; Group 2 spore strips, no pre-humidification prior to test) is reported as “− (“−” indicates at least a 6-log reduction of Bacillus atrophaeus)” and the “Oxidation of the target” value ([1]; every test (all exposure times, with and without pre-humidification)) is reported as “every test resulted in oxidation of the target”. For the same compound, the “Sterilization outcome” value ([1]; no pre-humidification, exposure times of 30 seconds, 1 minute, and 2 minutes, at CT's of 25, 50, and 100) was “some sterilization”, the “Sterilization outcome” value ([1]; no pre-humidification, exposure times of at least 5 minutes at a CT of 250) was “successful sterilization of all targets” and the “Applications resulting in successful sterilization” value ([1]; pre-humidified application zones, 30 seconds at a CT of 25) was 75%. For the same compound, the “Sterilization outcome” value ([1]; pre-humidified application zones, exposure times greater than or equal to 1 minute, CT greater than or equal to 50) was “successful sterilization of the targets for all applications”, the “CT found effective for sterilizing anthrax spores” value (anthrax spores) was 9000 ppmv-hrs and the “CT found effective for killing mold spores and eliminating allergenic effects” value (mold spores) was 6000-18000 ppmv-hrs.
